Assay results reported in PMC7507803 (ACS Pharmacology & Translational Science, 2020).
Residues, ends and D or L forms follow the SMILES beside them. *: point of attachment. AMC = Cc1cc(=O)oc2cc(N*)ccc12; Boc = CC(C)(C)OC(=O)*

Columns and labels:
TMPRSS2 (aa 148–492) = settings: TMPRSS2 biochemical screen; cited from earlier work
[1] = test system: SARS-CoV-2-S-mediated pseudotyped particle entry; settings: cited from earlier work
[2] = target: Recombinant Human TMPRSS2 (Homo sapiens, UniProt O15393); test: TMPRSS2 fluorogenic biochemical assay
trypsin = settings: cited from earlier work
[3] = cited from earlier work
SARS-CoV = settings: mouse, in vivo; cited from earlier work
prostasin = settings: cited from earlier work

Recombinant Human TMPRSS2, sequence (O15393 106-492): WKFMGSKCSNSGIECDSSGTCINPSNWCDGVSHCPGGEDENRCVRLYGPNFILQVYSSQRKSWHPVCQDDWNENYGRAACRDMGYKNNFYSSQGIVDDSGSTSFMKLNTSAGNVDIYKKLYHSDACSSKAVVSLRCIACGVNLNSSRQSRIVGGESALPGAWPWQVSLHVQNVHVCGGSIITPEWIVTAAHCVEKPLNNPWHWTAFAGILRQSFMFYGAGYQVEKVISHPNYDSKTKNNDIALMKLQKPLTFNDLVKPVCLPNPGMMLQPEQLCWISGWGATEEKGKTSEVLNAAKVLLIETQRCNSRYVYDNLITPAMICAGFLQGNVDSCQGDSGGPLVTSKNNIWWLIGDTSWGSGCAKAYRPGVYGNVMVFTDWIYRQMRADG

Question: Which results are given for `CN(Cc1cc(Br)cc(Br)c1N)C1CCCCC1` [bromhexine]?
Answer: IC50 (TMPRSS2 (aa 148–492)): 750 nM; inhibition of pseudotyped particle entry [1]: lack of inhibiting SARS-CoV-2-S-mediated pseudotyped particle entry; inhibition of TMPRSS2 ([2]; dose–response, listed as Bromhexine hydrochloride): no inhibition

Question: Which IC50 (trypsin) does the source give for `CN(C)C(=O)COC(=O)Cc1ccc(OC(=O)c2ccc(NC(=N)N)cc2)cc1` [camostat] here?
Answer: ~50 nM

Question: And the “t1/2 of hydrolysis in plasma” value ([3]; plasma)?
Answer: < 1 min

Question: What about the SARS-CoV pathogenesis (SARS-CoV) of the same compound?
Answer: mitigated SARS-CoV pathogenesis

Question: With `Nc1c(Br)cc(Br)cc1CN[C@H]1CC[C@H](O)CC1` [ambroxol] as the compound, how does the TMPRSS2 inhibition ([2]; 40 μM, data not shown) read?
Answer: did not show any TMPRSS2 inhibition

Question: With `Cc1cc(=O)oc2cc(NC(=O)[C@H](CCCNC(=N)N)NC(=O)[C@H](C)NC(=O)[C@H](CCC(N)=O)NC(=O)OC(C)(C)C)ccc12` [Boc-Gln-Ala-Arg-AMC] (Boc-Gln-Ala-Arg-{AMC}) as the compound, how does the “released AMC” value ([2]; 60 min, peptide 10 μM, TMPRSS2 1 μM, Tris-HCl pH8) read?
Answer: 27%

Question: Which inhibition of prostasin (prostasin) does the source give for `N=C(N)c1ccc2cc(O)ccc2c1` [6-amidino-2-naphthol] here?
Answer: do not inhibit

Question: For `N=C(N)c1ccc2cc(OC(=O)c3ccc(N=C(N)N)cc3)ccc2c1` [nafamostat], which “plasma half-life (t1/2)” value ([3]; IV infusion) is on record?
Answer: about 23 min

Question: With `N=C(N)Nc1ccc(C(=O)O)cc1` [4-guanidinobenzoic acid] as the compound, how does the inhibition of prostasin (prostasin) read?
Answer: do not inhibit

Question: For `N=C(N)Nc1ccc(C(=O)Oc2ccc(CC(=O)O)cc2)cc1` [FOY-251, 4-(4-guanidinobenzoyloxy)phenylacetic acid], which mean terminal half-life [3] is on record?
Answer: 60 min
